Numbers after ± are expanded uncertainties.
Test: xn = mol fraction of the nth substance listed
Settings: 100 kPa, Liquid; for viscosity: Falling or rolling sphere viscometry; for mass density: Vibrating tube method

CC[N+]1(C)CCOCC1.O=C([O-])CO [N-ethyl-N-methylmorpholinium glycolate] + O
Settings	mass density [kg/m3]	viscosity [mPa·s]
298.15 K, x1 = 0.0933	1128.6 ± 1.3	–
298.15 K, x1 = 0.1688	1170.3 ± 1	21.4 ± 2.2
298.15 K, x1 = 0.2209	1186.5 ± 1	43.1 ± 4.4
298.15 K, x1 = 0.288	1199.7 ± 1.1	95.3 ± 10
298.15 K, x1 = 0.3907	1211.3 ± 1.1	359 ± 43
298.15 K, x1 = 0.4809	1217.5 ± 1.2	842 ± 110
298.15 K, x1 = 0.5793	1221.9 ± 1.4	1779 ± 270
298.15 K, x1 = 0.6669	1224.6 ± 1.6	–
298.15 K, x1 = 0.7573	1226.9 ± 1.9	–
298.15 K, x1 = 0.8256	1228 ± 2.1	–
303.15 K, x1 = 0.0933	1125.6 ± 1	–
303.15 K, x1 = 0.1688	1167 ± 1	17 ± 1.7
303.15 K, x1 = 0.2209	1183.1 ± 1	32.9 ± 3.3
303.15 K, x1 = 0.288	1196.3 ± 1.1	69.7 ± 7.1
303.15 K, x1 = 0.3907	1207.9 ± 1.1	224 ± 25
303.15 K, x1 = 0.4809	1214.1 ± 1.2	494 ± 61
303.15 K, x1 = 0.5793	1218.5 ± 1.4	1005 ± 140
303.15 K, x1 = 0.6669	1221.2 ± 1.6	1723 ± 260
303.15 K, x1 = 0.7573	1223.6 ± 1.9	–
303.15 K, x1 = 0.8256	1224.8 ± 2.1	–
308.15 K, x1 = 0.0933	1122.6 ± 1	–
308.15 K, x1 = 0.1688	1163.7 ± 1	13.9 ± 1.4
308.15 K, x1 = 0.2209	1179.6 ± 1	25.8 ± 2.6
308.15 K, x1 = 0.288	1192.8 ± 1.1	52.3 ± 5.3
308.15 K, x1 = 0.3907	1204.5 ± 1.1	158 ± 17
308.15 K, x1 = 0.4809	1210.7 ± 1.2	339 ± 40
308.15 K, x1 = 0.5793	1215.1 ± 1.4	678 ± 88
308.15 K, x1 = 0.6669	1217.9 ± 1.6	1151 ± 160
308.15 K, x1 = 0.7573	1220.2 ± 1.9	1866 ± 280
308.15 K, x1 = 0.8256	1221.5 ± 2.1	–
313.15 K, x1 = 0.0933	1119.5 ± 1	–
313.15 K, x1 = 0.1688	1160.4 ± 1	11.3 ± 1.1
313.15 K, x1 = 0.2209	1176.2 ± 1	20.1 ± 2
313.15 K, x1 = 0.288	1189.4 ± 1.1	40.5 ± 4.1
313.15 K, x1 = 0.3907	1201.1 ± 1.1	118 ± 12
313.15 K, x1 = 0.4809	1207.3 ± 1.2	250 ± 28
313.15 K, x1 = 0.5793	1211.8 ± 1.4	496 ± 61
313.15 K, x1 = 0.6669	1214.6 ± 1.6	838 ± 110
313.15 K, x1 = 0.7573	1216.9 ± 1.9	1354 ± 190
313.15 K, x1 = 0.8256	1218.2 ± 2.1	1882 ± 280
318.15 K, x1 = 0.0933	1116.4 ± 1	–
318.15 K, x1 = 0.1688	1157 ± 1	9.61 ± 0.97
318.15 K, x1 = 0.2209	1172.8 ± 1	16.8 ± 1.7
318.15 K, x1 = 0.288	1186 ± 1.1	32 ± 3.2
318.15 K, x1 = 0.3907	1197.7 ± 1.1	85.6 ± 8.8
318.15 K, x1 = 0.4809	1204 ± 1.2	174 ± 19
318.15 K, x1 = 0.5793	1208.5 ± 1.4	334 ± 39
318.15 K, x1 = 0.6669	1211.2 ± 1.6	555 ± 70
318.15 K, x1 = 0.7573	1213.7 ± 1.8	884 ± 120
318.15 K, x1 = 0.8256	1214.9 ± 2.1	1219 ± 170
323.15 K, x1 = 0.0933	1113.2 ± 1	–
323.15 K, x1 = 0.1688	1153.6 ± 1	8.15 ± 0.82
323.15 K, x1 = 0.2209	1169.4 ± 1	13.9 ± 1.4
323.15 K, x1 = 0.288	1182.6 ± 1.1	25.5 ± 2.6
323.15 K, x1 = 0.3907	1194.3 ± 1.1	65.4 ± 6.6
323.15 K, x1 = 0.4809	1200.6 ± 1.2	130 ± 14
323.15 K, x1 = 0.5793	1205.2 ± 1.4	246 ± 28
323.15 K, x1 = 0.6669	1207.9 ± 1.6	405 ± 49
323.15 K, x1 = 0.7573	1210.3 ± 1.8	642 ± 82
323.15 K, x1 = 0.8256	1211.7 ± 2.1	882 ± 120
328.15 K, x1 = 0.0933	1110 ± 1	–
328.15 K, x1 = 0.1688	1150.2 ± 1	6.97 ± 0.7
328.15 K, x1 = 0.2209	1166 ± 1	11.7 ± 1.2
328.15 K, x1 = 0.288	1179.2 ± 1.1	20.8 ± 2.1
328.15 K, x1 = 0.3907	1191 ± 1.1	54 ± 5.4
328.15 K, x1 = 0.4809	1197.3 ± 1.2	98.6 ± 10
328.15 K, x1 = 0.5793	1201.9 ± 1.4	179 ± 19
328.15 K, x1 = 0.6669	1204.7 ± 1.6	283 ± 32
328.15 K, x1 = 0.7573	1207 ± 1.8	435 ± 53
328.15 K, x1 = 0.8256	1208.5 ± 2.1	587 ± 74
333.15 K, x1 = 0.0933	1106.8 ± 1	–
333.15 K, x1 = 0.1688	1146.8 ± 1	6 ± 0.6
333.15 K, x1 = 0.2209	1162.6 ± 1	9.79 ± 0.98
333.15 K, x1 = 0.288	1175.8 ± 1.1	17.3 ± 1.7
333.15 K, x1 = 0.3907	1187.6 ± 1.1	43.4 ± 4.4
333.15 K, x1 = 0.4809	1194 ± 1.2	77.6 ± 7.9
333.15 K, x1 = 0.5793	1198.6 ± 1.4	138 ± 15
333.15 K, x1 = 0.6669	1201.5 ± 1.6	217 ± 24
333.15 K, x1 = 0.7573	1203.8 ± 1.8	329 ± 38
333.15 K, x1 = 0.8256	1205.2 ± 2	441 ± 54
338.15 K, x1 = 0.0933	1103.5 ± 1	–
338.15 K, x1 = 0.1688	1143.4 ± 1	5.2 ± 0.52
338.15 K, x1 = 0.2209	1159.2 ± 1	8.55 ± 0.86
338.15 K, x1 = 0.288	1172.4 ± 1.1	14.6 ± 1.5
338.15 K, x1 = 0.3907	1184.3 ± 1.1	32.4 ± 3.3
338.15 K, x1 = 0.4809	1190.7 ± 1.2	59 ± 6
338.15 K, x1 = 0.5793	1195.4 ± 1.4	105 ± 11
338.15 K, x1 = 0.6669	1198.3 ± 1.6	165 ± 18
338.15 K, x1 = 0.7573	1200.8 ± 1.8	253 ± 29
338.15 K, x1 = 0.8256	1202.1 ± 2	340 ± 40
343.15 K, x1 = 0.0933	1100.2 ± 1	–
343.15 K, x1 = 0.1688	1140 ± 1	4.55 ± 0.46
343.15 K, x1 = 0.2209	1155.8 ± 1	7.41 ± 0.74
343.15 K, x1 = 0.288	1169 ± 1.1	12.4 ± 1.2
343.15 K, x1 = 0.3907	1181 ± 1.1	28.9 ± 2.9
343.15 K, x1 = 0.4809	1187.5 ± 1.2	49.6 ± 5
343.15 K, x1 = 0.5793	1192.2 ± 1.4	85.3 ± 8.7
343.15 K, x1 = 0.6669	1195.1 ± 1.6	131 ± 14
343.15 K, x1 = 0.7573	1197.6 ± 1.8	195 ± 21
343.15 K, x1 = 0.8256	1199 ± 2	258 ± 29
348.15 K, x1 = 0.0933	1096.8 ± 1.4	–
348.15 K, x1 = 0.1688	1136.6 ± 1.1	4.01 ± 0.4
348.15 K, x1 = 0.2209	1152.4 ± 1	6.46 ± 0.65
348.15 K, x1 = 0.288	1165.7 ± 1.1	10.7 ± 1.1
348.15 K, x1 = 0.3907	1177.7 ± 1.1	24.2 ± 2.4
348.15 K, x1 = 0.4809	1184.2 ± 1.2	40.4 ± 4.1
348.15 K, x1 = 0.5793	1189 ± 1.4	67.9 ± 6.9
348.15 K, x1 = 0.6669	1192 ± 1.6	102 ± 11
348.15 K, x1 = 0.7573	1194.5 ± 1.8	150 ± 16
348.15 K, x1 = 0.8256	1195.9 ± 2	196 ± 22
